Test results taken from publication PMC6717000 (Biosensors & bioelectronics, 2019).

System: Acid phosphatase from potato (AcP)
Assay: phenolCEST MRI of released phenol, initial velocity over […] min
Type: biochemical, Solanum tuberosum
Settings: pH 5.0, 37 °C, 10 mM acetate buffer, 10 mM Mg2+

In the case of `O=P(O)(O)Oc1ccccc1` [PP, phenyl phosphate], the Km is reported as 3.5 mM.
